# Where “and” joins values, the source holds several entries; their conditions need not be identical. Identical values can stand only once. Like-named read-outs stand apart in the source and are kept apart here.
# Columns and labels:
# NCI-H446 = test: In vitro anti-proliferation assay (ATPlite); format: cell-based; conditions: SCLC cell line NCI-H446, about 72 hours, read-out: anti-proliferative IC50
# Method: (§1) Cell antiproliferation is assayed by PerkinElmer ATPlite™ Luminescence Assay System. Briefly, the various test cancer cell lines are plated at a density of about 1×10^4 cells per well in Costar 96-well plates, and are incubated with different concentrations of compounds for about 72 hours in medium supplemented with 5% FBS. One lyophilized substrate solution vial is then reconstituted by adding 5 mL of substrate buffer solution, and is agitated gently until the solution is homogeneous. About 50 μL of mammalian cell lysis solution is added to 100 μL of cell suspension per well of a microplate, and the plate is shaken for about five minutes in an orbital shaker at ˜700 rpm. This procedure is used to lyse the cells and to stabilize the ATP. Next, 50 μL substrate solution is added to the wells and microplate is shaken for five minutes in an orbital shaker at ˜700 rpm. Finally, the luminescence is measured by a PerkinElmer TopCount® Microplate Scintillation Counter.
# (§2) As shown in the following table, the CY-16-1 has potent anticancer activity in small cell lung cancer (SCLC) cell lines. Cisplatin, the first line treatment of SCLC, was used as a reference drug in this assay: […]
# NCI-H82 = test: In vitro anti-proliferation assay (ATPlite); format: cell-based; conditions: SCLC cell line NCI-H82, about 72 hours, read-out: anti-proliferative IC50
# Method: as §1, §2
# NCI-H69 = test: In vitro anti-proliferation assay (ATPlite); format: cell-based; conditions: SCLC cell line NCI-H69, about 72 hours, read-out: anti-proliferative IC50
# Method: as §1, §2
# NCI-H209 = test: In vitro anti-proliferation assay (ATPlite); format: cell-based; conditions: SCLC cell line NCI-H209, about 72 hours, read-out: anti-proliferative IC50
# Method: as §1, §2
# DMS 114 = test: In vitro anti-proliferation assay (ATPlite); format: cell-based; conditions: SCLC cell line DMS 114, about 72 hours, read-out: anti-proliferative IC50
# Method: as §1, §2
# CDK7/CycH/MAT1 = CDK7/CycH/MAT1 (Homo sapiens, UniProt P50613); test: In vitro irreversible dialysis assay; format: biochemical; conditions: 700 nM compound pre-incubated 2 h with 50 nM enzyme, dialyzed 24 h at RT
# Method: 700 nM CY-16-1 compound was pre-incubated with 50 nM CDK7/CycH/MAT1 enzyme for 2 h in a buffer comprising: 100 mM HEPES pH7.5, 0.1% BSA, 5 mM MgCl2, 1 mM DTT, 0.01% Triton X-100 and dialyzed at RT against the same buffer for a total time of 24 h (3 changes of the dialysis buffer, nominal cumulative dialysis factor: 30,000). Control samples included: DMSO+50 nM CDK7 dialyzed in the identical manner Un-dialyzed samples with compound were assembled and incubated for 24 h at RT. Following dialysis, the CDK7 activity was measured in real-time format in the presence of 100 uM ATP and 1 uM substrate peptide. Initial velocity was determined in the samples.
# CDK7 = molecular target: T1, CDK7 (Homo sapiens, UniProt P50613); test: KINOMEscan CDK7 binding constant (Kd) determination; conditions: KINOMEscan competition binding, 11-point 3-fold dilution
# T1 construct: made in house; host or cells: E. coli BL21-derived host (T7 phage) or HEK-293
# CDK7/cyclinH1/MNAT1 = CDK7/cyclinH1/MNAT1 (Homo sapiens, UniProt P50613); test: Inhibition of CDK-7 enzymatic activity (p33 ATP radiometric assay)
# CDK7/cyclinH1/MNAT1, sequence (P50613 whole entry): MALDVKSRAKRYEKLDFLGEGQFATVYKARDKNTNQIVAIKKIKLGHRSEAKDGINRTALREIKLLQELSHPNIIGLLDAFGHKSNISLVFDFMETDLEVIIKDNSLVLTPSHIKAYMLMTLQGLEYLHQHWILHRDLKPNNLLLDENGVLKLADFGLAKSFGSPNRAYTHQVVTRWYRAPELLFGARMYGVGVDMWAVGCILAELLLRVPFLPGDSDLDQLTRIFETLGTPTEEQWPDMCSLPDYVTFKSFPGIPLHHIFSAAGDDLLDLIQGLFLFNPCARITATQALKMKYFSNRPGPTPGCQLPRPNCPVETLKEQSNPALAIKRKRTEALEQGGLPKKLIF
# CDK7/cyclinH1/MNAT1, sequence (P51946 whole entry partner): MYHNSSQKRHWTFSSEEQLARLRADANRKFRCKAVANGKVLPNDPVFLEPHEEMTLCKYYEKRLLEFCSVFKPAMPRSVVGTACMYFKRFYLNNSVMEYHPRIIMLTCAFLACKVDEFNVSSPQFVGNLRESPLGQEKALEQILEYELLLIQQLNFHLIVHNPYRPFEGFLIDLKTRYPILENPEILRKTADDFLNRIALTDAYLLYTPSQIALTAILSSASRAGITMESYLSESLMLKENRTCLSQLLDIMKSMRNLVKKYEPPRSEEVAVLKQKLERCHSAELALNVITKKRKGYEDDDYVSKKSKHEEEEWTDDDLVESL
# CDK7/cyclinH1/MNAT1, sequence (P51948 whole entry partner): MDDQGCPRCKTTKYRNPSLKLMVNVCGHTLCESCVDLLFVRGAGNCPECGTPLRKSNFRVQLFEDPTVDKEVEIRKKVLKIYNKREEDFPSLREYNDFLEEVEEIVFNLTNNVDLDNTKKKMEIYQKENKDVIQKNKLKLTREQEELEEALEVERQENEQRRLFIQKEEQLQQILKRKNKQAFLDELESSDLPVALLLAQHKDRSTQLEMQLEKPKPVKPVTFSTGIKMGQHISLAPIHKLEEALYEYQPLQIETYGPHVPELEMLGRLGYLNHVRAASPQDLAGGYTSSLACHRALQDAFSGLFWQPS
# CDK7/CycH/MAT1, sequence (P50613 whole entry): as the sequence (P50613 whole entry) above
# CDK7/CycH/MAT1, sequence (P51946 whole entry partner): as the sequence (P51946 whole entry partner) above
# CDK7/CycH/MAT1, sequence (P51948 whole entry partner): as the sequence (P51948 whole entry partner) above
# T1 sequence (P50613 whole entry): as the sequence (P50613 whole entry) above
Reversibility of CDK7 inhibition after dialysis (CDK7/CycH/MAT1),IC50 (NCI-H446; Homo sapiens) [nM],IC50 (NCI-H82; Homo sapiens) [nM],"IC50 (NCI-H69; Homo sapiens, NCI-H69, 72 h) [nM]",IC50 (NCI-H209; Homo sapiens) [nM],Kd (CDK7) [nM],IC50 (CDK7/cyclinH1/MNAT1) [nM],Compound,IC50 (NCI-H446) [nM],IC50 (NCI-H82) [nM],IC50 (NCI-H69),IC50 (NCI-H209) [nM],IC50 (DMS 114) [nM],IC50 (DMS 114; Homo sapiens) [nM]
–,–,–,–,–,–,–,"N.N.[Cl][Pt][Cl] [Cisplatin, reference compound]",7450,4510,7000 nM and 7700 nM,274,5950,–
irreversible inhibitor of CDK7,19,28,32,30,< 1,< 15,C=CC(=O)Nc1ccc(C(=O)Nc2cc3cc(c2)Nc2nccc(n2)-c2cccc(c2)OCC/C=C/CN(C)C3)cc1 [CY-16-1],–,–,18 nM,–,–,29
